Drawing on patent US20240124487A1, “BRANCHED MACROCYCLIC 4-(PYRAZOL-5-YL)-INDOLE DERIVATIVES AS INHIBITORS OF MCL-1” (JANSSEN PHARMACEUTICA NV, priority 2020, published 2024), this text covers AC50 and Ki for 10 compounds.

Structures are written as SMILES.

In assay [1] the test system is MOLP-8 human multiple myeloma cell line. Description: MOLP8 Caspase-Glo 3/7 apoptosis induction assay. Format: cell-based. Conditions: MOLP-8 cells, 2 hours incubation at 37° C., averaged values over all runs on all batches. The source says: MCL-1 is a regulator of apoptosis and is highly over-expressed in tumor cells that escape cell death. The assay evaluates the cellular potency of small-molecule compounds targeting regulators of the apoptosis pathway, primarily MCL-1, Bfl-1, Bcl-2, and other proteins of the Bcl-2 family. Protein-protein inhibitors disrupting the interaction of anti-apoptotic regulators with BH3-domain proteins initiate apoptosis.
The Caspase-Glo® 3/7 Assay is a luminescent assay that measures caspase-3 and -7 activities in purified enzyme preparations or cultures of adherent or suspension cells. The assay provides a proluminescent caspase-3/7 substrate, which contains the tetrapeptide sequence DEVD. This substrate is cleaved to release aminoluciferin, a substrate of luciferase used in the production of light. Addition of the single Caspase-Glo® 3/7 Reagent in an “add-mix-measure” format results in cell lysis, followed by caspase cleavage of the substrate and generation of a “glow-type” luminescent signal.
This assay uses the MOLP-8 human multiple myeloma cell line, which is sensitive to MCL-1 inhibition.
Materials: • Perkin Elmer Envision • Multidrop 384 and small volume dispensing cassettes • Centrifuge • Countess automated cell counter • Countess counting chamber slides • Assay plate: ProxiPlate-384 Plus, White 384-shallow well Microplate • Sealing tape: Topseal A plus • T175 culture flask
Cell cultures were maintained between 0.2 and 2.0×10^6 cells/mL. The cells were harvested by collection in 50 mL conical tubes. The cells were then pelleted at 500 g for 5 mins before removing supernatant and resuspension in fresh pre-warmed culture medium. The cells were counted and diluted as needed.
The assay reagent was prepared by transferring the buffer solution to the substrate vial and mixing. The solution may be stored for up to 1 week at 4° C. with negligible loss of signal.
Compounds were delivered in assay-ready plates (Proxiplate) and stored at −20° C.
Assays always include 1 reference compound plate containing reference compounds. The plates were spotted with 40 nL of compounds (0.5% DMSO final in cells; serial dilution; 30 μM highest conc. 1/3 dilution, 10 doses, duplicates). The compounds were used at room temperature and 4 μL of pre-warmed media was added to all wells except column 2 and 23. The negative control was prepared by adding 1% DMSO in media. The positive control was prepared by adding the appropriate positive control compound in final concentration of 60 μM in media. The plate was prepared by adding 4 μL negative control to column 23, 4 μL positive control to column 2 and 4 μL cell suspension to all wells in the plate. The plate with cells was then incubated at 37° C. for 2 hours. The assay signal reagent is the Caspase-Glo solution described above, and 8 μL was added to all wells. The plates were then sealed and measured after 30 minutes.
The activity of a test compound was calculated as percent change in apoptosis induction as follows: • LC=median of the Low Control values • =Central Reference in Screener • =DMSO • =0% • HC=Median of the High Control values • =Scale Reference in Screener • =30 μM of positive control • =100% apoptosis induction
% Effect (AC50)=100−((sample−LC)/(HC−LC))*100
% Control=(sample/HC)*100
% Control min=((sample−LC)/(HC−LC))*100

In assay [2] the target is Myeloid Cell Leukemia 1 (Mcl-1) (Homo sapiens (Human), UniProt Q07820). Description: Terbium labeled Mcl-1 HTRF binding assay (displacement of Cy5-labeled BIM BH3 peptide). The note with it: 25 pM Tb-Mcl-1, 8 nM Cy5 Bim peptide, Ki=IC50/(1+[L]/Kd), [L]=8 nM, Kd=10 nM, read-out: TB-MCL1 Ki. On the procedure:
Terbium labeled Myeloid Cell Leukemia 1 (Mcl-1) homogeneous time-resolved fluorescence (HTRF) binding assay utilizing the BIM BH3 peptide (H2N-(C/Cy5Mal) WIAQELRRIGDEFN-OH) as the binding partner for Mcl-1.
This assay evaluated inhibition of the BH3 domain: Mcl-1 interaction by measuring the displacement of Cy5-labeled BIM BH3 peptide (H2N—(C/Cy5Mal) WIAQELRRIGDEFN-OH) in the HTRF assay format.
The following assay and stock buffers were prepared for use in the assay: (a) Stock buffer: 10 mM Tris-HCl, pH=7.5+150 mM NaCl, filtered, sterilized, and stored at 4° C.; and (b) 1× assay buffer, where the following ingredients were added fresh to stock buffer: 2 mM dithiothreitol (DTT), 0.0025% Tween-20, 0.1 mg/mL bovine serum albumin (BSA). The 1×Tb-Mcl-1+Cy5 Bim peptide solution was prepared by diluting the protein stock solution using the 1× assay buffer (b) to 25 pM Tb-Mcl-1 and 8 nM Cy5 Bim peptide.
Using the Acoustic ECHO, 100 nL of 100× test compound(s) were dispensed into individual wells of a white 384-well Perkin Elmer Proxiplate, for a final compound concentration of 1× and final DMSO concentration of 1%. Inhibitor control and neutral control (NC, 100 nL of 100% DMSO) were stamped into columns 23 and 24 of assay plate, respectively. Into each well of the plate was then dispensed 10 μL of the 1×Tb-Mcl-1+Cy5 Bim peptide solution. The plate was centrifuged with a cover plate at 1000 rpm for 1 minute, then incubated for 60 minutes at room temperature with plates covered. The TR-FRET signal was read on an BMG PHERAStar FSX MicroPlate Reader at room temperature using the HTRF optic module (HTRF: excitation: 337 nm, light source: laser, emission A: 665 nm, emission B: 620 nm, integration start: 60 μs, integration time: 400 pts).
The BMG PHERAStar FSX MicroPlate Reader was used to measure fluorescence intensity at two emission wavelengths—665 nm and 620 nm—and report relative fluorescence units (RFU) for both emissions, as well as a ratio of the emissions (665 nm/620 nm)*10,000. The RFU values were normalized to percent inhibition as follows:
% inhibition=(((NC−IC)−(compound−IC))/(NC−IC))*100
where IC (inhibitor control, low signal)=mean signal of 1×Tb-MC1-1+Cy5 Bim peptide+inhibitor control or 100% inhibition of Mcl-1; NC (neutral control, high signal)=mean signal 1×Tb-MC1-1+Cy5 Bim peptide with DMSO only or 0% inhibition
An 11-point dose response curve was generated to determine IC50 values (using GenData) based on the following equation:
Y=Bottom+(Top−Bottom)/(1+10^((log IC50−X)*HillSlope))
where Y=% inhibition in the presence of X inhibitor concentration; Top=100% inhibition derived from the IC (mean signal of Mcl-1+inhibitor control); Bottom=0% inhibition derived from the NC (mean signal of Mcl-1+DMSO); Hillslope=Hill coefficient; and IC50=concentration of compound with 50% inhibition in relation to top/neutral control (NC).
In this assay [L]=8 nM and Kd=10 nM
Representative compounds of the present invention were tested according to the procedure as described above, with results as listed in the Table below (n.d. means not determined).

Chain of Myeloid Cell Leukemia 1 (Mcl-1) (Q07820 whole entry): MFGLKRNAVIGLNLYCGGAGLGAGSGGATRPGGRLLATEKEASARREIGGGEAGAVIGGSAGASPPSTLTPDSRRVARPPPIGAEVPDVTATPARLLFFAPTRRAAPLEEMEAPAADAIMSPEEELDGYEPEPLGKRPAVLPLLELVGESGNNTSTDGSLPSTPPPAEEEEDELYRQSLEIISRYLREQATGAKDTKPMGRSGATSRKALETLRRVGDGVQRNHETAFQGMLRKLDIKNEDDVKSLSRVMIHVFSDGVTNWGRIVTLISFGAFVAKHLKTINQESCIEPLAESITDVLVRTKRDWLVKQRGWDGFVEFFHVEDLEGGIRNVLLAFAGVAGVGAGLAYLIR

On to `Cc1c(C(=O)O)n2c3ccc(Cl)c(c13)-c1c(nn(C)c1C)C(CC(C)O)OCc1cc(n(C)n1)CCc1cc(c3ccc(F)cc3c1)OCCC2` (single isomer, unassigned) [Compound 19], for which the AC50 in assay [1] (Homo sapiens, MOLP-8, 2 h) amounted to 1210 nM. Besides, the Ki in assay [2] came to 0.057 nM.
As for `Cc1c(C(=O)O)n2c3ccc(Cl)c(c13)-c1c(nn(C)c1C)C(CC(C)O)OCc1cc(n(C)n1)CCc1cc(c3ccc(F)cc3c1)OCCC2` (single isomer, unassigned) [Compound 20], the AC50 in assay [1] came to 683 nM. Moreover, the Ki in assay [2] was 0.023 nM.
As to `COc1ccc(COC2CCc3cc(n(C)n3)CCc3cc(c4ccc(F)cc4c3)OCCCn3c(C(=O)O)c(C)c4c(c(Cl)ccc43)-c3c2nn(C)c3C)cc1` (single isomer, unassigned) [Compound 22], the AC50 in assay [1] is 1000 nM. For the same compound, the Ki in assay [2] came to 0.357 nM.
For `COc1ccc(COC2CCc3cc(n(C)n3)CCc3cc(c4ccc(F)cc4c3)OCCCn3c(C(=O)O)c(C)c4c(c(Cl)ccc43)-c3c2nn(C)c3C)cc1` (single isomer, unassigned) [Compound 23], the activity in assay [1] was half-maximal at 169 nM (AC50). Moreover, the Ki in assay [2] was found to be 0.073 nM.
In turn, `COCCCC1OCc2cc(n(C)n2)CCc2cc(c3ccc(F)cc3c2)OCCCn2c(C(=O)O)c(C)c3c(c(Cl)ccc32)-c2c1nn(C)c2C` (single isomer, unassigned) [Compound 24] had an AC50 in assay [1] greater than 25 nM. In assay [2], the Ki is 8.42 nM.
Take `Cc1c(C(=O)O)n2c3ccc(Cl)c(c13)-c1c(nn(C)c1C)C(CCO)OCc1cc(n(C)n1)CCc1cc(c3ccc(F)cc3c1)OCCC2` (centres unmarked) [Compound 6]: half-maximal activity in assay [1] (Homo sapiens, MOLP-8, 2 h) (AC50) was put at 52.7 nM. The Ki in assay [2] is 0.009 nM.
Consider `COCCOCCn1nc(C)c2c1C(C)OCc1cc(n(C)n1)CCc1cc(c3ccc(F)cc3c1)OCCCn1c(C(=O)O)c(C)c3c-2c(Cl)ccc31` (centres unmarked) [Compound 21], for which the activity in assay [1] was half-maximal at 318 nM (AC50). In addition, in assay [2], the Ki was found to be 0.057 nM.
In assay [1] (Homo sapiens, MOLP-8, 2 h), `CNCCC1OCc2cc(n(C)n2)CCc2cc(c3ccc(F)cc3c2)OCCCn2c(C(=O)O)c(C)c3c(c(Cl)ccc32)-c2c1nn(C)c2C` (centres unmarked) [Compound 26] came in with an AC50 greater than 30 nM. Moreover, the Ki in assay [2] was found to be 3.61 nM.
`Cc1nn2c3c1-c1c(Cl)ccc4c1c(C)c(C(=O)O)n4CCCOc1cc(cc4cc(F)ccc14)CCc1cc(nn1C)CCC3OCC2` (centres unmarked) [Compound 29]: the AC50 in assay [1] was 146 nM. In addition, the Ki in assay [2] worked out at 0.302 nM.
In the case of `COCCn1nc2cc1CCc1cc(c3ccc(F)cc3c1)OCCCn1c(C(=O)O)c(C)c3c(c(Cl)ccc31)-c1c(C)nn3c1C(CC2)OCC3` (centres unmarked) [Compound 34], the activity in assay [1] was half-maximal at 889 nM (AC50). The Ki in assay [2] was 0.408 nM.
